The values that follow come from ChEMBL document CHEMBL1201862, “PubChem BioAssay data set” (2004).

Test systems include MOLT-4; SK-MEL-28; SW-620; SF-539; SK-OV-3; OVCAR-3; HOP-92; RPMI-8226; CCRF-CEM; OVCAR-5; HCT-15; HCC 2998; M14; OVCAR-8; NCI-H226; K562; NCI-H23.
What all share (experiment): NCI-60 cell line screen, 48 h

Molecules are shown by their SMILES.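 Five concentrations, 48 hours, 96-well plates. At the GI50, growth is halved.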 Activity calls are given as the source filed them. No stated cut-off is given here; in the data, active = GI50 up to about 1.1 µM and inactive = higher.

As to `COc1cc(C=C2C(=O)NC(=O)NC2=O)cc(OC)c1OC`, the GI50 in the assay with MOLT-4, with SK-MEL-28, with SW-620, with SF-539, in the assay on SK-OV-3 and in the assay on OVCAR-3 was > 100 µM (inactive) throughout. Further, the GI50 in the assay with HOP-92 was > 100 µM (inactive); in the assay with RPMI-8226 it was > 100 µM (inactive); in the assay on CCRF-CEM, > 100 µM (inactive); with OVCAR-5, > 100 µM (inactive); in the assay with HCT-15, greater than 100 µM; with HCC 2998, > 100 µM (inactive). The GI50 with M14, in the assay on OVCAR-8, in the assay with NCI-H226, in the assay with K562 and in the assay with NCI-H23 was > 100 µM (inactive) throughout.

Turning to `CNC(=O)CN(CC(N)=O)C(N)=O`, the GI50 in the assay on MOLT-4, in the assay on SK-MEL-28, in the assay on SW-620, in the assay on SF-539, with SK-OV-3 and in the assay with OVCAR-3 was > 100 µM (inactive) each time. For the same molecule, the GI50 in the assay with HOP-92 is > 100 µM (inactive); in the assay with RPMI-8226, > 100 µM (inactive); in the assay with CCRF-CEM it was > 100 µM (inactive); in the assay with OVCAR-5, > 100 µM (inactive); in the assay on HCT-15, greater than 100 µM; with HCC 2998 it was > 100 µM (inactive). Also, the GI50 in the assay on M14, with OVCAR-8, in the assay with NCI-H226, in the assay on K562 and in the assay with NCI-H23 was > 100 µM (inactive) in each case.

Take `Cc1c(-c2coc(-c3ccc([N+](=O)[O-])cc3)n2)c(=O)n(-c2ccccc2)n1C`: the GI50 with MOLT-4, in the assay on SK-MEL-28, in the assay on SF-539, in the assay on SK-OV-3, with OVCAR-3 and in the assay with HOP-92 was > 100 µM (inactive) throughout. Further, the GI50 was > 100 µM (inactive) in the assay with RPMI-8226; > 100 µM (inactive) with CCRF-CEM; > 100 µM (inactive) in the assay with OVCAR-5; greater than 100 µM with HCT-15; > 100 µM (inactive) in the assay with HCC 2998; > 100 µM (inactive) in the assay on M14. In addition, the GI50 in the assay on OVCAR-8, in the assay with NCI-H226 and with NCI-H23 was > 100 µM (inactive) each time.

Regarding `CCOC(=O)CC(=O)Sc1ccccc1`, the GI50 is 11 µM (inactive) in the assay on MOLT-4; 14.6 µM (inactive) in the assay with SK-MEL-28; 19.1 µM (inactive) in the assay with SW-620; 14 µM (inactive) with SF-539; 24.5 µM (inactive) with SK-OV-3; 17.3 µM (inactive) in the assay on OVCAR-3. Besides, the GI50 in the assay with HOP-92 was 27.5 µM (inactive); with RPMI-8226 it was 17.7 µM (inactive); in the assay with CCRF-CEM, 3.82 µM (inactive); in the assay on OVCAR-5 it was 36.4 µM (inactive); in the assay on HCC 2998 it was 23.9 µM (inactive); with M14, 14.2 µM (inactive). Moreover, the GI50 in the assay on OVCAR-8 is 16.9 µM (inactive); in the assay on NCI-H226, 27.2 µM (inactive); with K562, 19.4 µM (inactive); with NCI-H23, 24.5 µM (inactive).

For the molecule `Cc1ccc(/C=N/NS(=O)(=O)c2ccccc2)cc1C`, the GI50 in the assay with MOLT-4, in the assay with SK-MEL-28, with SW-620, with SF-539, with SK-OV-3 and in the assay with OVCAR-3 was > 100 µM (inactive) in each case. Besides, the GI50 was > 100 µM (inactive) with HOP-92; > 100 µM (inactive) in the assay on RPMI-8226; > 100 µM (inactive) with CCRF-CEM; > 100 µM (inactive) in the assay with OVCAR-5; greater than 100 µM in the assay with HCT-15; > 100 µM (inactive) in the assay with HCC 2998. For the same molecule, the GI50 in the assay on M14, in the assay with OVCAR-8, in the assay with NCI-H226, in the assay with K562 and in the assay with NCI-H23 was > 100 µM (inactive) throughout.

`CCOc1ccc(NC(=O)C2=C(C)NC(C)=C(C(=O)Nc3ccc(OCC)cc3)C2c2ccc([N+](=O)[O-])cc2)cc1`: the GI50 with MOLT-4 is 7.1 µM (inactive); in the assay with SK-MEL-28, 34.2 µM (inactive); with SW-620, 22.3 µM (inactive); in the assay with SF-539, 24.3 µM (inactive); with SK-OV-3, > 100 µM (inactive); in the assay on OVCAR-3 it was 30.3 µM (inactive). Moreover, the GI50 with HOP-92 was 12.9 µM (inactive); in the assay on RPMI-8226, 13.8 µM (inactive); in the assay on CCRF-CEM, 13.3 µM (inactive); in the assay on OVCAR-5 it was 31.8 µM (inactive); in the assay on HCC 2998, 22.1 µM (inactive); in the assay on M14, 23.7 µM (inactive). Also, the GI50 was 35 µM (inactive) in the assay with OVCAR-8, 26.8 µM (inactive) in the assay on NCI-H226, 23.3 µM (inactive) in the assay on K562 and 28.2 µM (inactive) in the assay with NCI-H23.

As for `O=c1[nH]c(=O)n(C2OC(CO)C(O)C2O)cc1OCC(F)(F)F` (stereo not drawn), the GI50 in the assay on MOLT-4, with SK-MEL-28, in the assay on SW-620, with SF-539, in the assay with SK-OV-3 and with OVCAR-3 was > 100 µM (inactive) in each case. Further, the GI50 was > 100 µM (inactive) in the assay with HOP-92; > 100 µM (inactive) in the assay with RPMI-8226; > 100 µM (inactive) in the assay with CCRF-CEM; > 100 µM (inactive) with OVCAR-5; greater than 100 µM with HCT-15; > 100 µM (inactive) in the assay with HCC 2998. Moreover, the GI50 in the assay with M14, in the assay on OVCAR-8, with NCI-H226, with K562 and in the assay on NCI-H23 was > 100 µM (inactive) each time.

Regarding `CC/C=C/c1cc2cc[nH]c2c2c1C(C)C[C@@H]2C` (stereo partly drawn), the GI50 with MOLT-4 is 18.8 µM (inactive); in the assay on SK-MEL-28, 22.8 µM (inactive); with SW-620, 31.9 µM (inactive); in the assay with SF-539, 21.8 µM (inactive); with SK-OV-3, 63.8 µM (inactive); in the assay with OVCAR-3, 18.9 µM (inactive). Further, the GI50 in the assay with HOP-92 was 24.2 µM (inactive); with RPMI-8226, 21.6 µM (inactive); with CCRF-CEM, 23.7 µM (inactive); in the assay with HCT-15, 22.5 µM; in the assay with HCC 2998, > 10 µM (inactive); with M14 it was 28.1 µM (inactive). Also, the GI50 is 26.1 µM (inactive) in the assay with OVCAR-8, 15.1 µM (inactive) in the assay with NCI-H226, 25.1 µM (inactive) in the assay with K562 and 21.4 µM (inactive) in the assay with NCI-H23.

`CC(=O)OC(C[C@H](C)[C@@H]1CC[C@]2(C)C3=CCC4C(C)(C)C(=O)CC[C@]4(C)C3CCC12C)C1OC1(C)C` (stereo partly drawn): the GI50 is 24.5 µM (inactive) in the assay on MOLT-4; 27.3 µM (inactive) in the assay on SK-MEL-28; 34.1 µM (inactive) with SW-620; 41.4 µM (inactive) in the assay with SF-539; 13 µM (inactive) with SK-OV-3; 88.9 µM (inactive) with OVCAR-3. Also, the GI50 in the assay on HOP-92 was 11.9 µM (inactive); in the assay on RPMI-8226, 16.7 µM (inactive); in the assay with CCRF-CEM, 15.9 µM (inactive); in the assay on OVCAR-5, 16.7 µM (inactive); with HCT-15, 33 µM; with HCC 2998, 16.4 µM (inactive). The GI50 in the assay on M14 is 20.1 µM (inactive); in the assay with OVCAR-8, 28.8 µM (inactive); in the assay on NCI-H226, 13.6 µM (inactive); with K562, 7.24 µM (inactive); with NCI-H23, 20.5 µM (inactive).
